Experimental data reported in US20120190707A1, “SELECTIVE INHIBITORS OF AKT AND METHODS OF USING SAME” (priority 2008, published 2012).

What was measured:
[1] = tested on: AKT; test: AKT phosphorylation and expression by western blot in MeWo melanoma cells; format: cell-based
Description: (§1) (A) MeWo melanoma cells growing in 60 mm plates were treated with the indicated concentration of the inhibitor for 4 h before proteins were prepared for western blot analysis using the indicated antibodies. Level of beta.actin was monitored as a control for protein loading. (B) Experiment was performed as indicated in panel A, except that cells were harvested after 24 h for analysis of cell death using trypan blue staining. (C) Melanoma (MeWo), prostate cancer (PC3) and breast cancer (MCF7) cells were treated with BI-69A11 at the indicated concentrations; levels of AKT phosphorylation or expression were assessed 4 h later. The level of beta.actin used as a control for protein loading. (D) Experiment was performed as indicated in panel C, except that cells were harvested after 4 h for analysis of cell death using trypan blue staining.
To evaluate the effectiveness of BI-69A11 on melanoma cells we assessed the effect of different concentrations on AKT phosphorylation in MeWO cells.
For western blotting techniques, cells were lysed in RIPA buffer containing 50 mM TrisHCl pH7.4, 150 mM NaCl, 2 mM EDTA, 1% NP-40, 0.1% SDS. The protein concentration was estimated using the Coomassie Protein assay kit (Thermo Scientific, Rockford, Ill., USA). Equal concentrations of cell lysate (30-50 ug) were resolved on a 10% polyacrylamide gel and transferred onto Nitrocellulose membrane (GE Amersham). Membranes were blocked for 1-2 hours in either 3% BSA or 5% nonfat dried milk in Tris-buffered saline containing 0.05% Tween 20. Primary antibody incubations were performed overnight at 4° C. with shaking. The blots were washed followed by incubation with a secondary antibody incubation for 1 hour at room temperature. After washing, the blots were scanned on the Odyssey Licor scanner at the appropriate wavelength and the image was captured using the Odyssey software.

[2] = tested on: AKT; test: AKT phosphorylation and expression by western blot in PC3 prostate tumor cells; format: cell-based; settings: PC3, 5 and 10 micro.M
Description: as §1
For western blotting techniques, cells were lysed in RIPA buffer containing 50 mM TrisHCl pH7.4, 150 mM NaCl, 2 mM EDTA, 1% NP-40, 0.1% SDS. The protein concentration was estimated using the Coomassie Protein assay kit (Thermo Scientific, Rockford, Ill., USA). Equal concentrations of cell lysate (30-50 ug) were resolved on a 10% polyacrylamide gel and transferred onto Nitrocellulose membrane (GE Amersham). Membranes were blocked for 1-2 hours in either 3% BSA or 5% nonfat dried milk in Tris-buffered saline containing 0.05% Tween 20. […]

[3] = tested on: PC3 prostate tumor cells; test: Cell death by trypan blue staining, PC3; format: cell-based; settings: PC3, 5 micro.M, within 4 hours
Description: as §1
(§2) For the proliferation assays, cells were treated as described above. However, instead of scraping cells into the serum-free medium, floating cells were collected in a 15 mL centrifuge tube whereas adherent cells trypsinized gently. The total cell population was pooled and counted on a hemocytometer after staining with Trypan Blue.

[4] = tested on: MCF7 cells; test: Cell death by trypan blue staining, MCF7; format: cell-based; settings: 5 micro.M, 4 hours
Description: as §1, §2

[5] = tested on: AKT; test: pAKT473 and total AKT by western analysis in 29-1 (PTEN+) cells; format: cell-based, human; settings: 29-1 cells
Description: (§3) FIG. 6 describes the effect of BI-69A11 on phosphorylation and total levels of AKT in UACC 903 (PTEN−) cells. (A) UACC903 and the modified clone 29-1 (PTEN+) cells were exposed to 10 micro.M BI-69A11 and 50 micro.M LY294002 (a PI3K inhibitor) and the levels of pAKT473 and total AKT determined by western analysis. […] (SF=Serum Free). (B) BI-69A11 inhibits PRAS40 phosphorylation. UACC903 melanoma cells or 29-1 cells (PTEN+) were subjected to treatment with IGF-1 (20 ng/mL) and the level of PRAS40 phosphorylation was assessed. […] The cells were collected, lysed and levels of pPRAS40 and total PRAS40 determined by western analysis. (C) AKT association with HSP90 is inhibited by BI-69A11. Human melanoma cells were treated with BI-69A11 (10.micro.M) or DMSO control for 4 h, followed by protein preparation and immunoprecipitation using antibodies to pan-AKT. MG132 treatment, when used, initiated 1 h prior to treatment and lasted up to the preparation of proteins (total of 5 h). The right panel depicts analysis of total lysates.
The term “cell lines”, as used herein, unless otherwise indicated, refer to UACC 903 cells and 29-1 cells. The cells were cultured in DMEM, supplemented with 10% FBS and maintained at 37° C. in 5% CO2. Cells were plated to 75% confluency and grown overnight at 37° C. […]

[6] = tested on: AKT association with HSP90; test: AKT association with HSP90, immunoprecipitation from melanoma cells; format: cell-based, human; settings: 10.micro.M, 4 h
Description: as §3
Among cellular proteins implicated in the regulation of AKT levels is the cellular chaperone HSP90. […] Thus we assessed whether association of AKT with HSP90 could be affected by BI-69A11. […]

[7] = Initial MTD assays; settings: in vivo, 5 mg/kg; data not shown; read-out: dose at which MTD assays revealed toxicity
[8] = tested on: UACC903 melanoma cells; test: CellTiter Blue Cell Viability Assay in UACC903 cells; format: cell-based, human; settings: 24 h post-treatment
Description: UACC903 melanoma cells were treated with vehicle (0 μM) or the indicated concentrations of BI-69A11, BI-83G10, or BI-98C11. 24 h post-treatment, cell viability was determined using the CellTiter Blue Cell Viability Assay (Promega, Madison Wis.) following the manufacturer's directions.

## O=C(/C=C/c1nc2ccccc2[nH]1)c1c(O)nc2ccc(Cl)cc2c1-c1ccccc1 [Compound 2, (E)-3-(3-(1H-benzo[d]imidazol-2-yl)acryloyl)-6-chloro-4-phenylquinolin-2(1H)-one]
[1]; 3 micro.M, 4 h
  AKT phosphorylation on S473: partial inhibition
[1]; 5 and 10 micro.M
  AKT protein levels: reduced levels of AKT protein
[1]; 5 and 10 micro.M, 4 h
  basal level of AKT phosphorylation: effectively inhibited
[1]; low doses (<0.3 micro.M), 4 h
  AKT phosphorylation: did not affect
[2]
  AKT protein levels: reduced levels of AKT protein
[2]; 4 h
  basal level of AKT phosphorylation: effectively inhibited
[3]
  cell death: about 25%
[4]
  viability of MCF7 cells: did not affect
[5]
  AKT phosphorylation: limited to no effect
[5]; 10 micro.M, increasing time after treatment
  levels of total AKT: reduced levels of total AKT
[6]
  AKT association with HSP90: abolished
[7]
  MTD: 5 mg/kg
[8]
  viability of UACC903 cells: decreased the viability
